Measured values as given in US20240174727A1, “LONG-ACTING NATRIURETIC PEPTIDES AND USES THEREOF” (Eli Lilly and Company, priority 2022, published 2024).
Read-outs that look alike come from different tables or passages of the source. Numbered stars: 1 amine (or outer) side, 2 acyl side, 3 side chain; on linkers, the order of the positions; unused ones are H or OH. Bridge positions count the residues as written; N and C are the ends. Square brackets hold non-standard residues; d marks the D form. * marks the point of attachment. PEG24 = NCCOCCOCCOCCOCCOCCOCCOCCOCCOCCOCCOCCOCCOCCOCCOCCOCCOCCOCCOCCOCCOCCOCCOCCOCCC(=O)O; C20 diacid = O=C(O)CCCCCCCCCCCCCCCCCCC(=O)*; γGlu = O=C(O)[C@H](CCC(=O)[*:2])N[*:1]; 4Pal = N[C@@H](Cc1ccncc1)C(=O)O; CH2 = C([*:1])[*:2]; βAla = NCCC(=O)O

Assay: Pharmacokinetics in male Sprague Dawley rats
Assay type: in vivo
Conditions: rat, sc, mean, single subcutaneous administration of 200 nMol/kg, plasma; for half-life: read-out: t½ (converted)
Procedure: The pharmacokinetics of the exemplary analogs are evaluated following a single subcutaneous administration of […] to male Sprague Dawley rats. Blood samples are collected over 120 hours, and resulting individual plasma concentrations are used to calculate pharmacokinetic parameters. Peptide plasma (K3 EDTA) concentrations are determined using a qualified LC/MS method that measured the intact mass of the ANP polypeptide. Each peptide and an analog as an internal standard are extracted from 100% specie specified plasma using methanol with 0.1% formic acid. A Thermo Q-Exactive, High Resolution Instrument, and a Thermo Easy Spray PepMap are combined for LC/MS detection.

Row | Compound | CL/F | half-life | half-life (in vivo)
1 | {C20 diacid-γGlu}-EKEKEKG[PEG24]EK[βAla]RSSCFGGKIDRIGHQSGLGCPSFRHGSPSSGAPPPS-NH2 (linker 15-31 via CH2) [Example 7] | 0.055 mL/min/kg | 19 h | –
2 | CC[C@H](C)[C@@H]1NC(=O)[C@H](CCCNC(=N)N)NC(=O)[C@H](CC(=O)O)NC(=O)[C@H]([C@@H](C)CC)NC(=O)[C@H](CCCNC(=N)N)NC(=O)CNC(=O)CNC(=O)[C@H](Cc2ccccc2)NC(=O)[C@@H](NC(=O)[C@H](CO)NC(=O)[C@H](CO)NC(=O)[C@H](CCCNC(=N)N)NC(=O)CCNC(=O)[C@H](CCCCN)NC(=O)[C@H](CCC(=O)O)NC(=O)CNC(=O)[C@H](CCCCN)NC(=O)[C@H](CCC(=O)O)NC(=O)[C@H](CCCCN)NC(=O)[C@H](CCC(=O)O)NC(=O)[C@H](CCCCN)NC(=O)[C@H](CCC(=O)O)NC(=O)CC[C@H](NC(=O)CCCCCCCCCCCCCCCCC(=O)O)C(=O)O)CSCSC[C@@H](C(=O)N2CCC[C@H]2C(=O)N[C@@H](CO)C(=O)N[C@@H](Cc2ccccc2)C(=O)N[C@@H](CCCNC(=N)N)C(=O)N[C@@H](Cc2c[nH]cn2)C(=O)NCC(=O)NCC(=O)N[C@@H](CCCCN)C(=O)N[C@@H](CO)C(=O)N[C@@H](CO)C(=O)NCC(=O)N[C@@H](C)C(=O)N2CCC[C@H]2C(=O)N2CCC[C@H]2C(=O)N2CCC[C@H]2C(=O)N[C@@H](CO)C(N)=O)NC(=O)CNC(=O)[C@H](CC(C)C)NC(=O)CNC(=O)[C@H](CO)NC(=O)[C@H](Cc2ccc(O)cc2)NC(=O)[C@H](Cc2c[nH]cn2)NC(=O)CNC1=O [Example 76] | 0.118 mL/min/kg | – | 30 h
3 | {C20 diacid-γGlu}-EKEKEKG[PEG24]S[4Pal]RRSSCFGGRIDRIGHQSGLGCPSFRHGGKSSGAPPPS-NH2 (linker 15-31 via CH2) [Example 75] | 0.182 mL/min/kg | 17 h | –
